Experimental data taken from patent US9149038B2, “4-amino-6-(heterocyclic)picolinates and 6-amino-2-(heterocyclic)pyrimidine-4-carboxylates and their use as herbicides” (Dow AgroSciences LLC, priority 2013, dated 2015).

Tested on: Key Broadleaf and Grass Weed as well as Crop Species
Test: Pre-Emergent Test I: preemergent herbicidal activity, herbicidal effect rating 14 days after treatment (Table 6)
Assay type: in vivo
Details: for Visual Growth Reduction (%) 14 Days After Application ECHCG: barnyardgrass (Echinochloa crus-galli); for Visual Growth Reduction (%) 14 Days After Application SETFA: giant foxtail (Setaria faberi); for Visual Growth Reduction (%) 14 Days After Application IPOHE: ivyleaf morningglory (Ipomoea hederecea); for Visual Growth Reduction (%) 14 Days After Application HELAN: sunflower (Helianthus annuus); for Visual Growth Reduction (%) 14 Days After Application AVEFA: wild oats (Avena fatua)
Protocol: Herbicidal evaluations were made visually on a scale of 0 to 100 where 0 represents no activity and 100 represents complete plant death. Pre-Emergent Test I: Seeds of test species were planted into round plastic pots (5-inch diameter) containing sandy loam soil. After planting, all pots were sub-irrigated 16 h prior to compound application. Compounds were dissolved in a 97:3 v/v mixture of acetone and DMSO and diluted to the appropriate concentration in a final application solution containing water, acetone, isopropanol, DMSO and Agri-dex (crop oil concentrate) in a 59:23:15:1.0:1.5 v/v ratio and 0.02% w/v (weight/volume) of Triton X-155 to obtain the spray solution containing the highest application rate. The high application rate was serial diluted with the above application solution to provide delivery of the compound at rates ½×, ¼× and ⅛× of the highest rate (equivalent to 4.0, 2.0, 1.0, and 0.5 kg/ha, respectively). Formulated compound (2.7 mL) was applied pipetted evenly over the soil surface followed by incorporation with water (15 mL). Following treatment, pots were returned to the greenhouse for the duration of the experiment. The greenhouse was programmed for an approximate 15 h photoperiod which was maintained at about 23-29° C. during the day and 22-28° C. during the night. Nutrients and water were added on a regular basis through surface irrigation and supplemental lighting was provided with overhead metal halide 1000-Watt lamps as necessary. Herbicidal effect ratings were obtained 14 days after treatment. All evaluations were made relative to appropriate controls on a scale of 0 to 100 where 0 represents no herbicidal effect and 100 represents plant death or lack of emergence from the soil and are presented as indicated in Table 4.

Row | SMILES | Visual Growth Reduction (%) 14 Days After Application ECHCG (4 kg ai/ha) | Visual Growth Reduction (%) 14 Days After Application SETFA (4 kg ai/ha) | Visual Growth Reduction (%) 14 Days After Application IPOHE (4 kg ai/ha) | Visual Growth Reduction (%) 14 Days After Application HELAN (4 kg ai/ha) | Visual Growth Reduction (%) 14 Days After Application AVEFA (4 kg ai/ha) | Visual Growth Reduction (%) 14 Days After Application ECHCG (3.96 kg ai/ha) | Visual Growth Reduction (%) 14 Days After Application SETFA (3.96 kg ai/ha) | Visual Growth Reduction (%) 14 Days After Application IPOHE (3.96 kg ai/ha) | Visual Growth Reduction (%) 14 Days After Application HELAN (3.96 kg ai/ha) | Visual Growth Reduction (%) 14 Days After Application AVEFA (3.96 kg ai/ha)
1 | COC(=O)c1nc(-c2cccc3c2OCO3)c(F)c(N)c1Cl [Compound 71, Methyl 4-amino-6-(benzo[d][1,3]dioxol-4-yl)-3-chloro-5-fluoropicolinate] | F (30-44) | G (0-29) | E (45-59) | A (95-100) | F (30-44) | – | – | – | – | –
2 | Nc1c(F)c(-c2cccc3c2OC(F)(F)O3)nc(C(=O)O)c1Cl [Compound 74] | – | – | – | – | – | A (95-100) | E (45-59) | D (60-74) | A (95-100) | D (60-74)
3 | Nc1c(F)c(-c2cccc3c2OCO3)nc(C(=O)O)c1Cl [Compound 72, 4-Amino-6-(benzo[d][1,3]dioxol-4-yl)-3-chloro-5-fluoropicolinic acid] | C (75-84) | G (0-29) | G (0-29) | A (95-100) | D (60-74) | – | – | – | – | –
4 | COC(=O)c1nc(-c2cccc3c2OC(F)(F)O3)c(F)c(N)c1Cl [Compound 73] | – | – | – | – | – | G (0-29) | G (0-29) | C (75-84) | A (95-100) | G (0-29)
